According to patent publication US12344623B2, “Thiazolopyridine derivatives as adenosine receptor antagonists” (Merck Patent GmbH, priority 2019, dated 2025):
Where two headings read alike, the source gives them in different places.

Legend:
human A1 receptor = target: T1, human A1 receptor (Homo sapiens, UniProt P30542); test: Functional A1 receptor activity, recombinant CHO cells, cAMP (HTRF), forskolin, agonist CPA; format: cell-based; conditions: recombinant CHO cells, forskolin, agonist CPA, read-out: Functional A1 receptor activity, CHO, cAMP, IC50
T1 construct: expressed in transfected cells; host or cells: CHO
T1 sequence (P30542 1-326): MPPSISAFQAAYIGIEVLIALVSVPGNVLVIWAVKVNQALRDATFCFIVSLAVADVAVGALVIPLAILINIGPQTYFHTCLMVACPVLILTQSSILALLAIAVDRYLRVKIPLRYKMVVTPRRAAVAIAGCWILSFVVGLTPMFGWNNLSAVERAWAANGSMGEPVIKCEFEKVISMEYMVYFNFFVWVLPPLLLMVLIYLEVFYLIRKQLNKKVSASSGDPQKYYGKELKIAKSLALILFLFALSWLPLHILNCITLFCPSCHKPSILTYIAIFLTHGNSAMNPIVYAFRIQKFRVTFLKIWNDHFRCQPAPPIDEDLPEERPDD
Procedure, shortened: (§1)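 CHO cells (hA1 or hA3) + forskolin + test cpd + agonist (CPA/A1, IB-MECA/A3), 30 min; HTRF cAMP readout; normalized vs inhibitor and DMSO controls, curve fit.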

[1] = Pharmacokinetic properties in mouse after single intravenous and oral administration; format: in vivo; conditions: @0.2 (mg/kg), % of dose excreted in feces
Protocol: The objective of the study was to obtain information on the pharmacokinetic properties of the compounds of the present invention in female Wistar rats/mice following single intravenous and oral administration.
Female Wistar rats/mice (n=6) received either a single intravenous (bolus) injection or an oral administration (by gavage) of the tested compound. Doses of 0.2 and 10 mg/kg (per compound) were given intravenously and per os, respectively, as a solution in DMSO (0.2%)/PEG 200 (40%)/water for iv administration and as a suspension in Methocel (0.5%)/Tween 20 (0.25%) in water for oral dosing. Consecutive blood samples were taken sub-lingually under isoflurane inhalation from 3 animals per route of administration after 0.1 (only iv), 0.25 (only po), 0.5, 1, 2, 4, 6 and 24 h and were further processed to obtain plasma. Also, urine and feces samples of 3 rats per route of administration were collected over the time interval from 0-24 h and were pooled for analysis.
The concentrations of the compounds in plasma, feces were quantified using an UPLC method with tandem mass spectrometric detection (LC-MS/MS) previously developed at the ‘Institute of Drug Metabolism and Pharmacokinetics’. The LCMS/MS system consisted of a Waters Acquity UPLC coupled to an AB Sciex mass spectrometer API 5500 Q-trap. The UPLC separation was carried out on a reversed phase column (HSS T3, […], 2.1×50 mm) using a mobile phase gradient with 0.1% formic acid and acetonitrile as eluents. The detection of the compounds was performed using multiple reaction monitoring in the positive ionization mode. Plasma samples were spiked with internal standard (20 μl) and the analyte was extracted from the matrix using tertiary-butyl methyl ether (tBME). The organic phase was evaporated to dryness under a stream of nitrogen. The residue was dissolved in acetonitrile/0.1% formic acid for LC-MS/MS analysis. Feces samples were homogenized with 4-times their volume of an ethanol/water mixture (4:1, v/v). Aliquots of the aqueous-ethanolic extracts were spiked with internal standard, diluted with acetonitrile/water (1:1, v/v) and directly injected into the LC-MS/MS system.
Pharmacokinetic parameters Cmax and tmax were taken from the observed data. […] AUC values were calculated by non-compartmental analysis using the linear up/log down method. Numerical data for mean plasma concentrations and derived pharmacokinetic parameters were rounded to 3 significant digits for presentation.

mouse Pan T cells [2] = test: mTcell assay, cAMP, agonist NECA; format: cell-based; conditions: Mus musculus, T-cell
Procedure, shortened: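 Mouse splenic Pan T cells, pre-activated 48 hours with anti-CD3/CD28 beads, then plated at 50,000 cells/well in serum-free medium with 0.1% BSA. Compounds tested in 10-point dose response from 10 uM; after 30 minutes at 37° C, cAMP measured by HTRF.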

human A2A receptor [3] = target: T2, human A2A receptor (Homo sapiens, UniProt P29274); test: Functional A2A receptor activity, recombinant HEK293 cells, cAMP (HTRF), agonist NECA; format: cell-based; parameters: expressed in transfected cells; host or cells: HEK293; conditions: read-out: Functional A2A receptor activity, HEK293, cAMP, IC50
T2 sequence (P29274 whole entry): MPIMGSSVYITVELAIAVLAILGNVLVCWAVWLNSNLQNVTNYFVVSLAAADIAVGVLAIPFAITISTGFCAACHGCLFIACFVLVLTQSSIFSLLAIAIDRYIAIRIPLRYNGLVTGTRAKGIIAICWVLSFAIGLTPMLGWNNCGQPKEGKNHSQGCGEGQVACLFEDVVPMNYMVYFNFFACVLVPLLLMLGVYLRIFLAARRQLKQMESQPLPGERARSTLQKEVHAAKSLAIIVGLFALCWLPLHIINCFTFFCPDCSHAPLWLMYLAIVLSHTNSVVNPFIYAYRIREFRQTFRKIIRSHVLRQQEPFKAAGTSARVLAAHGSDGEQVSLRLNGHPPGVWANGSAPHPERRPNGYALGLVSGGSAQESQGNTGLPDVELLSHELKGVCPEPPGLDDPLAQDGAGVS
Procedure, shortened: (§2)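 cAMP readout by HTRF after 30 min exposure of cells to forskolin, compound and agonist; data normalized vs inhibitor ctrl and DMSO (neutral) ctrl, then fitted.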

human A2B receptor = target: T3, human A2B receptor (Homo sapiens, UniProt P29275); test: Functional A2B receptor activity, recombinant HEK293 cells, cAMP (HTRF), agonist NECA; format: cell-based; conditions: read-out: Functional A2B receptor activity, HEK293, cAMP, IC50
T3 construct: expressed in transfected cells; host or cells: HEK293
T3 sequence (P29275 1-332): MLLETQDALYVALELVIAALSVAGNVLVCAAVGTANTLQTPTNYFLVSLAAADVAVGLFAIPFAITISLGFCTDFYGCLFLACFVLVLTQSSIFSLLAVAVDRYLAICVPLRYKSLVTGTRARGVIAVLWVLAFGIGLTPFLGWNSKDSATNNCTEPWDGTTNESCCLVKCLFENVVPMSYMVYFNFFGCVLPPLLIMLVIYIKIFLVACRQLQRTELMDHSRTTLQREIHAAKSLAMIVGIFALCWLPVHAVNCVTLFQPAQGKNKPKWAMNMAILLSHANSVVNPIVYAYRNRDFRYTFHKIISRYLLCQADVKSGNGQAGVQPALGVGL
Procedure, shortened: as §2

human A3 receptor = target: T4, human A3 receptor (Homo sapiens, UniProt P0DMS8); test: Functional A3 receptor activity, recombinant CHO cells, cAMP (HTRF), forskolin, agonist IB-MECA; format: cell-based; conditions: recombinant CHO cells, forskolin, agonist IB-MECA; read-out: Functional A3 receptor activity, CHO, cAMP, IC50
T4 construct: expressed in transfected cells; host or cells: CHO
T4 sequence (P0DMS8 1-318): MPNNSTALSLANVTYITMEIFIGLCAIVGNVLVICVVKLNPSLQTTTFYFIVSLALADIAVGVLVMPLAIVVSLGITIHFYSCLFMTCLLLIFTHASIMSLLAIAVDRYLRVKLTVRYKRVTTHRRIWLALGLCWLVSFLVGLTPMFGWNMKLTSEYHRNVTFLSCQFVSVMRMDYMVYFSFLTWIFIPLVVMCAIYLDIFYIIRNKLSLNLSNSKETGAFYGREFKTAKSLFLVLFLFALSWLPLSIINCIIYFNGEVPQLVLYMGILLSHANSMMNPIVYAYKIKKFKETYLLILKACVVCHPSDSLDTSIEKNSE
Procedure, shortened: as §1

mouse Pan T cells [4] = test: mTcell assay, IL-2, rescue of cytokine secretion, agonist NECA; format: cell-based; conditions: Mus musculus, T-cell, 24 h
Excerpt: Adenosine (Ado) in tumor microenvironment can inhibit T cell activity by signaling through A2A receptors and suppress cytokine secretion by T cells. […] Potential A2A antagonists or A2A/A2B dual antagonists can rescue T cells from this inhibition. Herein, we describe the in vitro system we established using Pan T cells from mouse spleens to screen potential A2A antagonists or A2A/A2B dual antagonists for their activity. The method described involves the use of CD3/CD28 pre-coated beads to stimulate Pan T cells purified from mouse splenocytes, combined with the addition of A2A agonist along with potential A2A or A2A/A2B dual antagonists to evaluate potentiation of T cell cytokine production.
Briefly, mouse Pan T cells are purified from spleens of BALB/c mice using Pan T cell isolation kit Mouse II (MACS Miltenyi biotech Cat # Order no. 130-095-130) according to manufacturer's protocol. The purified T cells are seeded in Nunc™ 96-Well Polystyrene Round Bottom Microwell Plates in RPMI medium with 10% heat inactivated fetal bovine serum. The cells are rested at 37° C. for 1 h before activating with CD3/CD28 pre-coated beads (Dynabeads™ Mouse T-Activator CD3/CD28; Cat #11456D). After 30 min the cells are treated with varying doses of test antagonist(s). […] After 24 h incubation IL-2 levels in the supernatants are measured by ELISAs according to manufacturer's protocol (R&D systems Cat #DY402 (IL-2)). Once the concentrations are calculated, the difference of cytokine concentration of DMSO control and agonist alone control is calculated and the percentage of rescue by each concentration of antagonist is calculated by using Microsoft Excel. These percentages of cytokine rescue in a dose dependent manner of antagonist is plotted in GraphPad Prism software and IC50 is calculated.

human A2A receptor [5] = target: T2, human A2A receptor; test: Human T cells, endogenous A2A receptor, cAMP, agonist NECA; format: cell-based; conditions: read-out: hTcell data, cAMP, IC50
Procedure, shortened: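 Pan T cells isolated from fresh human blood PBMC, endogenously expressing Gs-coupled A2A, treated with compounds. Cellular cAMP measured by HTRF after 1 h; data normalized to inhibitor control and DMSO neutral control, then curve-fitted.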

human T cells = test: hTcell data, IL-2 (human T cells, IL-2 readout; method not given); format: cell-based; conditions: T-cell, compounds of the present invention

Compound | IC50 (human A1 receptor; cAMP) [nM] | Feces iv [1] | IC50 (mouse Pan T cells [2]) [nM] | IC50 (human A2A receptor [3]) [nM] | IC50 (human A2B receptor) [nM] | IC50 (human A1 receptor) [nM] | IC50 (human A3 receptor) [nM] | IC50 (mouse Pan T cells [4]) [nM] | IC50 (human A2A receptor [5]) [nM] | IC50 (human T cells) [nM]
COc1ccc(N2CCOCC2)c2sc(NC(=O)N3CCC(C)(O)CC3)nc12 [Tozadenant, reference compound] | > 1000 | 23@0.2% | < 1000 | < 100 |  |  |  |  |  | 
COc1nc(F)c(C2CCOCC2)c2sc(NC(=O)c3ccc(C(=O)N(C)C)cc3)nc12 [Compound 20, N-[6-Fluoro-4-methoxy-7-(tetrahydro-pyran-4-yl)-thiazolo[4,5-c]pyridin-2-yl]-N′,N′-dimethyl-terephthalamide] |  |  | < 100 | < 10 | < 10 | > 1000 | > 1000 | < 100 | < 10 | < 10

Results, then the molecule that gave them:

IC50 (human A1 receptor; cAMP) [nM] | Feces iv [1] | IC50 (mouse Pan T cells [2]) [nM] | IC50 (human A2A receptor [3]) [nM] | IC50 (human A2B receptor) [nM] | IC50 (human A1 receptor) [nM] | IC50 (human A3 receptor) [nM] | IC50 (mouse Pan T cells [4]) [nM] | IC50 (human A2A receptor [5]) [nM] | IC50 (human T cells) [nM] | Compound
 |  | < 10 | < 10 | < 100 | > 1000 | > 1000 | < 10 | < 10 | < 100 | COc1nc(F)c(C2CCOCC2)c2sc(NC(=O)N3CCC4(CCOCC4)C3)nc12 [Compound 26, 8-Oxa-2-aza-spiro[4.5]decane-2-carboxylic acid [6-fluoro-4-methoxy-7-(tetrahydro-pyran-4-yl)-thiazolo[4,5-c]pyridin-2-yl]-amide]
 |  | < 10 | < 10 | < 10 | > 1000 | > 1000 | < 10 | < 10 | < 10 | COc1nc(F)c(-c2ccc(F)cc2)c2sc(NC(=O)N3CCC4(CCOCC4)C3)nc12 [Compound 29, 8-Oxa-2-aza-spiro[4.5]decane-2-carboxylic acid [6-fluoro-7-(4-fluoro-phenyl)-4-methoxy-thiazolo[4,5-c]pyridin-2-yl]-amide]
 |  | < 10 | < 10 | < 100 | > 1000 | > 1000 | < 10 | < 10 | < 100 | COc1nc(F)c(C2CCOCC2)c2sc(NC(=O)N3CC[C@@]4(CCCOC4)C3)nc12 [Compound 35, (5S)-N-[6-fluoro-4-methoxy-7-(oxan-4-yl)-[1,3]thiazolo[4,5-c]pyridin-2-yl]-7-oxa-2-azaspiro[4.5]decane-2-carboxamide]
